Test results taken from ChEMBL document CHEMBL5244273, “Tuberculosis: An Overview of the Immunogenic Response, Disease Progression, and Medicinal Chemistry Efforts in the Last Decade toward the Development of Potential Drugs for Extensively Drug-Resistant Tuberculosis Strains” (J Med Chem, 2021).
Converted amounts (≈) assume the structure as drawn.

How the values were obtained:
[1] = test system: Mycobacterium tuberculosis; test: Antimycobacterial activity against Mycobacterium tuberculosis H37Rv; assay type: functional
[2] = Cytotoxicity against Chinese hamster CHO-K1 cells assessed as inhibition of cell growth; assay type: toxicity, cell-based, Cricetulus griseus
[3] = Selectivity index, ratio of IC50 for cytotoxicity against Chinese hamster CHO-K1 cells to MIC for antimycobacterial activity against Mycobacterium tuberculosis H37Rv; assay type: toxicity, cell-based; conditions: read-out: Selectivity Index
[4] = test system: Mycobacterium tuberculosis; test: Antitubercular activity against Mycobacterium tuberculosis XDR-FJ05195 assessed as inhibition of bacterial growth by microplate alamar blue assay; assay type: functional
[5] = test system: Mycobacterium tuberculosis; test: Antitubercular activity against Mycobacterium tuberculosis MDR-FJ05189 assessed as inhibition of bacterial growth by microplate alamar blue assay; assay type: functional
[6] = test system: Mycobacterium tuberculosis; test: Antitubercular activity against Mycobacterium tuberculosis MDR-FJ05120 assessed as inhibition of bacterial growth by microplate alamar blue assay; assay type: functional
[7] = test system: Mycobacterium tuberculosis; test: Antitubercular activity against Mycobacterium tuberculosis STB-FJ05349 assessed as inhibition of bacterial growth by microplate alamar blue assay; assay type: functional
[8] = test system: Staphylococcus epidermidis; test: Antibacterial activity against Staphylococcus epidermidis; assay type: functional
Escherichia coli = test: Antibacterial activity against ESBL negative Escherichia coli ATCC 25922; assay type: functional
Staphylococcus aureus = test: Antibacterial activity against methicillin susceptible Staphylococcus aureus ATCC 29213; assay type: functional
[9] = test system: Mycobacterium tuberculosis; test: Antitubercular activity against Mycobacterium tuberculosis H37Rv ATCC 27294 assessed as inhibition of bacterial growth by microplate alamar blue assay; assay type: functional
[10] = test system: Mycobacterium tuberculosis; test: Antitubercular activity against Mycobacterium tuberculosis STB-FJ05060 assessed as inhibition of bacterial growth by microplate alamar blue assay; assay type: functional
[11] = test system: Mycobacterium tuberculosis; test: Antitubercular activity against Mycobacterium tuberculosis H37Rv by resazurin microtitre assay; assay type: functional
[12] = (§1) Cytotoxicity against African green monkey Vero cells; assay type: toxicity, cell-based, Chlorocebus sabaeus; conditions: African green monkey, Vero cells
[13] = Cytotoxicity against HEK293T cells assessed as reduction in cell viability; assay type: toxicity, cell-based, HEK-293T; conditions: human
[14] = test system: Mycobacterium tuberculosis; test: Antimycobacterial activity against Mycobacterium tuberculosis H37Rv assessed as inhibition of bacterial growth incubated for 5 days by alamar blue assay; assay type: functional; conditions: 120 h, time 5 day
[15] = Cytotoxicity against African green monkey Vero cells assessed as inhibition of cell growth incubated for 72 hrs by MTT assay; assay type: toxicity, cell-based, Chlorocebus sabaeus
[16] = test system: Mycobacterium tuberculosis; test: Antimycobacterial activity against Mycobacterium tuberculosis H37Rv […]; assay type: functional
Vero = test: as §1; assay type: toxicity, cell-based, Chlorocebus sabaeus; conditions: chlorocebus sabaeus, vero
[17] = test system: Mycobacterium tuberculosis; test: Antimycobacterial activity against Mycobacterium tuberculosis H37Rv incubated for 3 weeks; assay type: functional; conditions: 504 h
[18] = test system: Mycobacterium tuberculosis; test: Antimycobacterial activity against Mycobacterium tuberculosis H37Rv incubated for 2 weeks; assay type: functional; conditions: 336 h
[19] = test system: Mycobacterium tuberculosis; test: Antimycobacterial activity against Mycobacterium tuberculosis H37Rv incubated for 4 weeks; assay type: functional; conditions: 672 h
[20] = test system: Mycobacterium tuberculosis; test: Antimycobacterial activity against Mycobacterium tuberculosis H37Rv incubated for 5 weeks; assay type: functional; conditions: 840 h
[21] = test system: Mycobacterium tuberculosis; test: Antitubercular activity against Mycobacterium tuberculosis H37Rv assessed as inhibition of bacterial growth by alamar blue assay; assay type: functional
[22] = test system: Mycobacterium tuberculosis; test: Antitubercular activity against dormant stage of Mycobacterium tuberculosis H37Ra; assay type: functional
[23] = test system: Mycobacterium tuberculosis; test: Antitubercular activity against active stage of Mycobacterium tuberculosis H37Ra; assay type: functional

`S=c1[nH]nc(-c2ccccc2)o1` showed an MIC [1] of 2.2 µg/mL (≈ 12.3 µM), an IC50 [2] of 33.3 µg/mL (≈ 187 µM) and a selectivity ratio [3] of 15.1.
With `O=C(Nc1nc(-c2ccccn2)cs1)c1ccc(Cl)s1` the MIC [4] was 0.25 µg/mL (≈ 0.777 µM), the MIC [5] was 4 µg/mL (≈ 12.4 µM) and the MIC [6] was 0.25 µg/mL (≈ 0.777 µM). It also gave an MIC [7] of 0.08 µg/mL (≈ 0.249 µM), an MIC [8] of 32 µg/mL (≈ 99.4 µM) and an MIC (Escherichia coli) of 256 µg/mL (≈ 795 µM). It also gave an MIC (Staphylococcus aureus) of 32 µg/mL (≈ 99.4 µM), an MIC [9] of 0.08 µg/mL (≈ 0.249 µM) and an MIC [10] of 0.08 µg/mL (≈ 0.249 µM).
With `CCN(CC)CCOc1c(C(=O)OC)c2c3c(oc2c2ccccc12)C(=O)c1ccccc1C3=O` the MIC50 [11] was 0.19 µg/mL (≈ 0.403 µM).
`Oc1ccc(-c2nnc(S)o2)cc1` gave an MIC [1] of 0.6 µg/mL (≈ 3.09 µM) and a selectivity ratio [3] of 39.6.
`CC(=O)N1N=C(c2ccc3oc(-c4ccc(O)cc4)nc3c2)CC1c1cccs1` (stereo not drawn) gave an MIC [1] of 0.8 µg/mL (≈ 1.98 µM) and an IC50 [12] of 32.5 µg/mL (≈ 80.6 µM).
For `Cc1nc(C)c(-c2nnc(S)o2)s1`, the MIC [1] was 1.3 µg/mL (≈ 6.1 µM) and the IC50 [2] was 21.7 µg/mL (≈ 102 µM).
`CC(=O)N1/C(=C/c2cccc(-c3cnc4ccccc4c3)c2)C(=O)c2ccccc21` showed a CC50 [13] of 14 µM, an MIC90 [1] of 2.65 µM (≈ 1.03 µg/mL) and an MIC99 [1] of 3.13 µM (≈ 1.22 µg/mL).
For `Cc1cc(O)n2nc(Nc3ccc(Cl)c(Cl)c3)c(C(N)=O)c2n1`, the MIC [14] was 6.25 µg/mL (≈ 17.7 µM) and the IC50 at 72 h [15] was 29 µg/mL (≈ 82.4 µM).
`CC(=O)N1N=C(c2ccc3oc(NC(=O)CCl)nc3c2)CC1c1cccs1` (stereo not drawn) gave an MIC [1] of 6.25 µg/mL (≈ 15.5 µM) and an IC50 [12] greater than 62.5 µg/mL.
`Cc1ccc(NC(=O)c2c(Nc3ccc(Cl)cc3)nn3c(O)cc(C)nc23)cc1` gave an MIC [14] of 3.12 µg/mL (≈ 7.65 µM) and an IC50 at 72 h [15] of 21 µg/mL (≈ 51.5 µM).
For `CC(=O)N1/C(=C/c2ccc(-c3ccc(C)cc3)cc2)C(=O)c2ccccc21`, the MIC90 [1] was 2.71 µM (≈ 0.958 µg/mL), the MIC99 [1] was 4.37 µM (≈ 1.54 µg/mL) and the MIC [16] was 14.8 µM (≈ 5.23 µg/mL).
Work on `CC(=O)N1/C(=C/c2ccc(-c3ccccc3)cc2)C(=O)c2ccccc21` yielded an MIC90 [1] of 1.32 µM (≈ 0.448 µg/mL), an MIC99 [1] of 2.29 µM (≈ 0.777 µg/mL) and an MIC [16] of 12.3 µM (≈ 4.17 µg/mL).
For `Sc1nnc(-c2cc3ccccc3[nH]2)o1`, the MIC [1] was 1.3 µg/mL (≈ 5.98 µM), the IC50 [2] was 21.6 µg/mL (≈ 99.4 µM) and the selectivity ratio [3] was 16.6.
With `COc1ccccc1NC(=O)c1c(Nc2cccc(C)c2)nn2c(O)cc(C)nc12` the MIC [14] was 3.12 µg/mL (≈ 7.73 µM) and the IC50 at 72 h [15] was 21.3 µg/mL (≈ 52.7 µM).
Work on `Sc1nnc(-c2ccc(I)cc2)o1` yielded an MIC [1] of 0.9 µg/mL (≈ 2.96 µM), an IC50 [2] of 46.7 µg/mL (≈ 154 µM) and a selectivity ratio [3] of 51.8.
`CC(=O)N1/C(=C/c2ccc(Br)cc2)C(=O)c2ccccc21` showed an MIC90 [1] of 0.31 µM (≈ 0.106 µg/mL), an MIC99 [1] of 0.37 µM (≈ 0.127 µg/mL) and an MIC [16] of 15.2 µM (≈ 5.2 µg/mL).
Compound `CC(=O)N1/C(=C/c2ccc(-c3ccc(Cl)cc3)cc2)C(=O)c2ccccc21` has a CC50 [13] of 7 µM, an MIC90 [1] of 2.32 µM (≈ 0.867 µg/mL) and an MIC99 [1] of 4.05 µM (≈ 1.51 µg/mL). For the same compound, the MIC [16] was 8.37 µM (≈ 3.13 µg/mL).
`CC(=O)N1/C(=C/c2ccccc2)C(=O)c2cc(-c3ccccc3)ccc21` gave a CC50 [13] of 12 µM, an MIC90 [1] of 1.24 µM (≈ 0.421 µg/mL) and an MIC99 [1] of 1.39 µM (≈ 0.472 µg/mL).
`Sc1nnc(-c2cc(Br)co2)o1` showed an MIC [1] of 1.5 µg/mL (≈ 6.07 µM), an IC50 [2] of 35.5 µg/mL (≈ 144 µM) and a selectivity ratio [3] of 25.6.
`Cc1cc(O)n2nc(Nc3ccc(F)c(F)c3)c(C(=O)Nc3ccc(F)cc3)c2n1` gave an MIC [14] of 0.8 µg/mL (≈ 1.94 µM) and an IC50 at 72 h [15] of 13.6 µg/mL (≈ 32.8 µM).
With `COc1cccc(C(=O)Nc2nc3cc(C4=NN(C(C)=O)C(c5cccs5)C4)ccc3o2)c1` (stereo not drawn) the MIC [1] was 1.6 µg/mL (≈ 3.47 µM) and the IC5 (Vero) was greater than 62.5 µg/mL.
`Sc1nnc(-c2cc3ccccc3o2)o1` showed an MIC [1] of 1.3 µg/mL (≈ 5.96 µM), an IC50 [2] of 34.4 µg/mL (≈ 158 µM) and a selectivity ratio [3] of 26.4.
`CC[C@@H](CO)NCCN[C@@H](CC)CO` [ETHAMBUTOL] showed an MIC [11] of 0.78 µg/mL (≈ 3.82 µM).
In the case of `NNC(=O)c1ccncc1` [ISONIAZID], the MIC [1] is reported as 0.5 µg/mL (≈ 3.65 µM), the MIC [4] is reported as greater than 256 µg/mL and the MIC [5] is reported as less than 0.5 µg/mL. The MIC [6] was 4 µg/mL (≈ 29.2 µM), the MIC [14] was 0.5 µg/mL (≈ 3.65 µM) and the MIC [7] was less than 0.5 µg/mL. For the same compound, the MIC [11] was 0.19 µg/mL (≈ 1.39 µM), the MIC [9] was 0.125 µg/mL (≈ 0.911 µM) and the MIC [10] was less than 0.5 µg/mL.
Compound `C[C@H]1COc2c(N3CCN(C)CC3)c(F)cc3c(=O)c(C(=O)O)cn1c23.C[C@H]1COc2c(N3CCN(C)CC3)c(F)cc3c(=O)c(C(=O)O)cn1c23.O` [LEVOFLOXACIN] has an MIC [17] of 0.25 µg/mL, an MIC [18] of 0.25 µg/mL and an MIC [19] of 0.25 µg/mL. It also gave an MIC [20] of 0.25 µg/mL, an MIC [8] of 0.25 µg/mL and an MIC (Staphylococcus aureus) of 0.25 µg/mL.
In the case of `NC(=O)c1cnccn1` [PYRAZINAMIDE], the MIC [21] is reported as 3.12 µg/mL (≈ 25.4 µM), the MIC [1] is reported as 3.12 µg/mL (≈ 25.3 µM) and the MIC [14] is reported as 3.12 µg/mL (≈ 25.3 µM). It also gave an MIC [11] greater than 200 µg/mL.
For `CO[C@H]1/C=C/O[C@@]2(C)Oc3c(C)c(O)c4c(O)c(c(/C=N/N5CCN(C)CC5)c(O)c4c3C2=O)NC(=O)/C(C)=C\C=C\[C@H](C)[C@H](O)[C@@H](C)[C@@H](O)[C@@H](C)[C@H](OC(C)=O)[C@@H]1C` [RIFAMPIN], the MIC90 [1] was 0.00291 µM (≈ 0.00239 µg/mL), the MIC99 [1] was 0.00482 µM (≈ 0.00397 µg/mL) and the MIC [4] was 4 µg/mL (≈ 4.86 µM). For the same compound, the MIC [22] was 0.91 µg/mL (≈ 1.11 µM), the MIC [5] was greater than 256 µg/mL and the MIC [6] was greater than 256 µg/mL. The MIC [7] was less than 0.5 µg/mL, the MIC [23] was 0.75 µg/mL (≈ 0.911 µM) and the MIC [16] was 0.377 µM (≈ 0.31 µg/mL). For the same compound, the MIC [11] was 0.049 µg/mL (≈ 0.0595 µM), the MIC [9] was 0.125 µg/mL (≈ 0.152 µM) and the MIC [10] was less than 0.5 µg/mL.
For `CN[C@@H]1[C@H](O[C@H]2[C@H](O[C@H]3[C@H](O)[C@@H](O)[C@H](N=C(N)N)[C@@H](O)[C@@H]3N=C(N)N)O[C@@H](C)[C@]2(O)C=O)O[C@@H](CO)[C@H](O)[C@H]1O` [STREPTOMYCIN], the MIC [21] was 6.25 µg/mL (≈ 10.7 µM), the MIC [1] was 6.25 µg/mL (≈ 10.7 µM) and the MIC [14] was 6.25 µg/mL (≈ 10.7 µM). It also gave an MIC [11] of 0.19 µg/mL (≈ 0.327 µM).
